# Values quoted from earlier work, collected in patent US20160089380A1, “PROGESTERONE IMPREGNATED VAGINAL RING/PESSARY” (YALE UNIVERSITY, priority 2014, published 2016).
# Legend:
# women [1] = details: two studies
# women [2] = system: women
compound,measurement,setting,value
CC(=O)[C@H]1CC[C@H]2[C@@H]3CCC4=CC(=O)CC[C@]4(C)[C@H]3CC[C@]12C [progesterone],risk of preterm birth <34 weeks (RR),"women [1]; 438 women, 95% CI 0.45 to 0.90",0.64
same,risk of preterm birth at <28 weeks' gestation (RR),"women [1]; 1115 women, 95% CI 0.37 to 0.93",0.59
same,risk of preterm birth <37 weeks (average RR),"women [2]; 10 studies, 1750 women, 95% CI 0.42 to 0.74",0.55
same,risk of preterm birth <34 weeks (average RR),"women [2]; five studies, 602 women, 95% CI 0.14 to 0.69",0.31
same,"increase in pregnancy prolongation, mean difference (MD)","women [2]; one study, 148 women, 95% CI 2.15 to 6.79",4.47 weeks
